# Experimental data taken from patent US20250145589A1, “PYRIDINE DERIVATIVE AND USE THEREOF” (SICHUAN HUIYU PHARMACEUTICAL CO., LTD., priority 2021, published 2025).
# What was measured:
# [1] = tested on: pancreatic cancer MIA-Paca2 cell subcutaneous xenograft tumor; settings: cited from earlier work
# [2] = tested on: KRAS G12C mutation; settings: at the cellular level; cited from earlier work
# [3] = tested on: NCI-H358-AMGR drug-resistant cell line; assay: NCI-H358-AMGR drug-resistant cell proliferation inhibitory activity test; format: cell-based; settings: 72 h; NCI-H358-AMGR drug-resistant cells, 3 days incubation, CellTiter-Glo
# How it was run: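 Luminescent CellTiter-Glo read-out after 3-day, 37° C compound exposure (8 points, 5-fold series) of AMG510-resistant NCI-H358 cells plated at 4×10^3 per well.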
# [4] = tested on: MIA PaCa-2 cells (KRAS G12C mutant); assay: MIA PaCa-2 cell anti-proliferation (CellTiter-Glo); format: cell-based; settings: Homo sapiens, 72 h; MIA Paca-2 cells, 3 days, Table 7; read-out: MIA PaCa-2 (IC50)
# How it was run: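 Viable-cell luminescence (CellTiter-Glo, ≥30 min at 25 °C) measured after a 3-day, 37 °C exposure to compounds at 9 points, 4-fold spaced, in DMEM containing 10% FBS plus 2.5% horse serum. IC50 derived versus no-inhibitor wells.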
# [5] = molecular target: KRAS^G12C-SOS1 (Homo sapiens (Human), UniProt P01116, G12C); assay: HTRF KRAS G12C/SOS1 binding assay; settings: Table 5
# Procedure: Initially, a 2 mM stock solution of the test compound (dissolved in DMSO) was serially diluted in five-fold concentrations using DMSO to obtain eight working solutions 1 (200×). Subsequently, each of the eight working solutions 1 was further diluted in a 20-fold gradient by adding 5 μL into 95 μL of Diluent buffer, mixed completely with vortex mixer, resulting in eight working solutions 2 (10×). […] Subsequently, 5 μL of Anti-tag 1-Tb^3+ stock solution and 5 μL of Anti-tag2-XL665 were added to each well, mixed, and incubated at 4° C. for 3 hours. Remove the plate and read on an HTRF® compatible reader, with the excitation light wavelength set at 337 nm and readings recorded at 620 nm and 665 nm. The data results were presented as the ratio of the 665 nm signal value to the 620 nm signal value for each well, calculated as follows: […]. The inhibition rate was calculated using the following formula: […]
# Data were analyzed using GraphPad Prism with log (inhibitor) vs. response-Variable Slope (four parameters) fitting calculations for IC50 values.
# [6] = tested on: MIA PaCa-2-AMGR drug-resistant cell line; assay: MIA PaCa-2-AMGR drug-resistant cell proliferation inhibitory activity test; format: cell-based; settings: 72 h, MIA PaCa-2-AMGR drug-resistant cells, 3 days incubation, CellTiter-Glo
# Procedure: Test Example 7: Generation of MIA PaCa-2-AMGR drug-resistant cell line
# MIA PaCa-2 cells were seeded and cultured at 50 to 70% confluence in six-well plate with DMEM (10% FBS+2.5% horse serum) medium at 37° C. with 5% CO2. AMG510 was added for induction at three starting concentrations of 1 nM, 10 nM and 50 nM, and the medium containing the same concentration of AMG510 was replaced every 3 days. Cells were passaged once they reached confluence. After every two passages at a given concentration of drug, the concentration was increased in a 3-fold increment until final concentrations of 1 μM for AMG510 was achieved.
# MIA PaCa-2-AMGR cells in logarithmic growth phase were collected and seeded into a clear-bottom 96-well plate at a density of 4×10^3 cells per well in 80 μL of medium, and then incubated overnight at 37° C. with 5% CO2. The compounds were serially diluted 5-fold in DMSO to obtain 8 concentrations, and then further diluted with DMEM (10% FBS+2.5% horse serum) cell culture medium to obtain the working solutions (5×), 20 μL of each working solution was added to the cell culture supernatant in each well, and the plate was further incubated for 3 days at 37° C. with 5% CO2. The plate was then equilibrated with CellTiter-Glo® reagent at room temperature (25° C.) for 10-30 minutes. After aspirating 50 μL of the medium, 50 μL of CellTiter-Glo® reagent was added. The cells were thoroughly mixed with the CellTiter-Glo® reagent using a microplate shaker for 2 minutes, and then incubated at room temperature for 10 minutes. The 96-well plate was placed in a multi-mode microplate reader to record the luminescence values (RLU).
# The inhibitory rate was calculated using the following formula: […]
# Data were analyzed using GraphPad Prism for IC50 values (Note: The negative control refers to the group without inhibitor) The data were presented m Table 9
# [7] = molecular target: PI3Kδ (Homo sapiens (Human), UniProt O00329); assay: Inhibition of PI3Kδ efficacy assay (ADP-Glo kinase assay); format: biochemical; settings: Table 1; read-out: PI3Kδ inhibitory activity (IC50)
# How it was run: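 Luminescent ADP-Glo readout of PI3Kδ: after a 60 min RT reaction with PI/ATP substrate, ATP depletion (40 min) and ADP detection (40 min) steps followed. Compounds tested as eight five-fold serial dilutions; inhibition rates fitted to log(inhibitor) vs. response, variable slope, for IC50.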
# [8] = molecular target: PI3Kα (Homo sapiens (Human), UniProt P42336); assay: Inhibition of PI3Kα efficacy assay (ADP-Glo kinase assay); format: biochemical; settings: Table 1; read-out: PI3Kα inhibitory activity (IC50)
# How it was run: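 ADP-Glo luminescent detection of ADP from PI3Kα acting on PI substrate with ATP, 60 min at RT; compounds in 8-point five-fold serial dilution from 2 mM DMSO stock. IC50 from four-parameter variable-slope fit.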
# Chain of KRAS^G12C-SOS1 (P01116-2 other isoform, or with tags, fused parts or gaps G12C): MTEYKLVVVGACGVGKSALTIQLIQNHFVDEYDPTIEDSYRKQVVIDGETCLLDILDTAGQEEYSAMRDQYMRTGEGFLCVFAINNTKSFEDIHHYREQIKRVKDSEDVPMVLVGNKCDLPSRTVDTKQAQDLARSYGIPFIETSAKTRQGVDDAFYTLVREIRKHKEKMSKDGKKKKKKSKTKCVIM
# Chain of PI3Kδ (O00329 whole entry): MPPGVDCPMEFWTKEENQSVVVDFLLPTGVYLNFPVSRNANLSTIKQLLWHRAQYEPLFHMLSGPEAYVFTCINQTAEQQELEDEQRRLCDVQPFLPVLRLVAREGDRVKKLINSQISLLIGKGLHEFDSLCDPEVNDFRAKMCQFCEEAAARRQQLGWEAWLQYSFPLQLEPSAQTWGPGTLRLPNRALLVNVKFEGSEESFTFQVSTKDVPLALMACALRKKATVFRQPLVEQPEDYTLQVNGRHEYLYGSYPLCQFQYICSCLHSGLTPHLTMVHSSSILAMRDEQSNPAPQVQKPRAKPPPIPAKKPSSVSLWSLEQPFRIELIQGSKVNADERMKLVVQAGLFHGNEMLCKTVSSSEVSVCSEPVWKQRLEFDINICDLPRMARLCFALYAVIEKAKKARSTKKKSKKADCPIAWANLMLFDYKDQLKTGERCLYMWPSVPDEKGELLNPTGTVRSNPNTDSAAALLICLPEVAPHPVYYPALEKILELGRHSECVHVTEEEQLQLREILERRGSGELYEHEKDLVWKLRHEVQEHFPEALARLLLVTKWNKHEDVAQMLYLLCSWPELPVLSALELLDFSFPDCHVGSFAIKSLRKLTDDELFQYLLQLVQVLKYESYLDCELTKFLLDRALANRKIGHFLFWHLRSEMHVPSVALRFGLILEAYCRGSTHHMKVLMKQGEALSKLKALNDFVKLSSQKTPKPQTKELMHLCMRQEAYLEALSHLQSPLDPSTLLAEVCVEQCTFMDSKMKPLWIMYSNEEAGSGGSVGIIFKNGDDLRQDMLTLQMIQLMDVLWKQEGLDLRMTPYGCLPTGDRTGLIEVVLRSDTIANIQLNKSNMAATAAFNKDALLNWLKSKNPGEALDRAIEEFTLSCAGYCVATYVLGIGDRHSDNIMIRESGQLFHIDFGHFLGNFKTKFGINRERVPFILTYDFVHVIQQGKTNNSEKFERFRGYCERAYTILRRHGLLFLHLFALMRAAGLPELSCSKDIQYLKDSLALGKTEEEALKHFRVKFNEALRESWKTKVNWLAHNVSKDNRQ
# Chain of PI3Kδ (P27986 whole entry partner): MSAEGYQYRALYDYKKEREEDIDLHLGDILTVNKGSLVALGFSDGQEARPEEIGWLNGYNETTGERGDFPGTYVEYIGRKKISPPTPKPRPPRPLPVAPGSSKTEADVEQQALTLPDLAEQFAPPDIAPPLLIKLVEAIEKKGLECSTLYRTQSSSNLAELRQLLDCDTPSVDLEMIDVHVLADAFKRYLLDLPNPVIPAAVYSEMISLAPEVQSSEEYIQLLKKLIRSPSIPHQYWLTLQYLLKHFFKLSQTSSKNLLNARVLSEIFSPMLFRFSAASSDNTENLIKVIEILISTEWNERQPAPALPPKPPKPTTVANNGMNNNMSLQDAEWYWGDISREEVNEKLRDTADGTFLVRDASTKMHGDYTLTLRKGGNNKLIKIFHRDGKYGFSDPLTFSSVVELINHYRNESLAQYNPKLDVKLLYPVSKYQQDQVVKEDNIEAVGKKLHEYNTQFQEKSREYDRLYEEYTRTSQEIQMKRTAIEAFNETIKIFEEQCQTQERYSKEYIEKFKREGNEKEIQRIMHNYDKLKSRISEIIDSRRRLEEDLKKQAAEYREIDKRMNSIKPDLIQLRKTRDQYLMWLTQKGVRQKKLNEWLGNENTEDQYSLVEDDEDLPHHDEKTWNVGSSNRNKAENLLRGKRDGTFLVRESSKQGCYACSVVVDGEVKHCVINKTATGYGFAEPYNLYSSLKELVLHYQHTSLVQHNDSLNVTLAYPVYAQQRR
# Chain of PI3Kα (P42336 whole entry): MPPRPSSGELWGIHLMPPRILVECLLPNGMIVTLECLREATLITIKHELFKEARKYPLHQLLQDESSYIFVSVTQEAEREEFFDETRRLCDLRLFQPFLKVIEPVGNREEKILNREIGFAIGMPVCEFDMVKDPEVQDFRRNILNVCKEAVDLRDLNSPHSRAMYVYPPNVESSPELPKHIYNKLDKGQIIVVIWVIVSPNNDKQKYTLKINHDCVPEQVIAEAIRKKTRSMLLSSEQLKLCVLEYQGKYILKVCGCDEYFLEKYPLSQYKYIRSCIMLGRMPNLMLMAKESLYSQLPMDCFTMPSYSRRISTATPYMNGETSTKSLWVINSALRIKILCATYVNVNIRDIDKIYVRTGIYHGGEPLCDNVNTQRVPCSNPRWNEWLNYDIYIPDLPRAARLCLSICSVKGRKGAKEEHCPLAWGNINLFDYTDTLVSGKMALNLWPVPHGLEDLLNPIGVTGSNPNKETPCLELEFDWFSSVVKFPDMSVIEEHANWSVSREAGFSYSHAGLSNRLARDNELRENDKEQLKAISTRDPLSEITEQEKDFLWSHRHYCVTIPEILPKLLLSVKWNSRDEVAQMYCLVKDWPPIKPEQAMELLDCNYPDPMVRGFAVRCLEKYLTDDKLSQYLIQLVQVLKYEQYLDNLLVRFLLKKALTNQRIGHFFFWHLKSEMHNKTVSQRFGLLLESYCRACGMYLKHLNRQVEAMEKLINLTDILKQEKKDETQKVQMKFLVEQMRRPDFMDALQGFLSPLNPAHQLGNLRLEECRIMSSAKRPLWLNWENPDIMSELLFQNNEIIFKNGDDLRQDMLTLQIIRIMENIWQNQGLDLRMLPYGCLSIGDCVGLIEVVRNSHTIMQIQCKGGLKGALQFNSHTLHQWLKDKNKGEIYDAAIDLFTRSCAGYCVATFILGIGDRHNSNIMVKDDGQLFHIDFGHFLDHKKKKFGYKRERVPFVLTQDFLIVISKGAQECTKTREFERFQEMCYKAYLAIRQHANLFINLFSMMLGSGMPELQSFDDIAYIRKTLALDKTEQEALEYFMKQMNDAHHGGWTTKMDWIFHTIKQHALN
# Chain of PI3Kα (P27986 whole entry partner): as the sequence (P27986 whole entry partner) above
SMILES,tumor growth inhibition [1],cellular anti-proliferative activity [2],IC50 [3] [µM],IC50 [4] [µM],IC50 [5] [µM],IC50 [6] [µM],IC50 [7] [µM],IC50 [8] [µM]
C=CC(=O)N1CCN(c2ncnc3c(F)c(-c4c(O)cccc4F)c(Cl)cc23)CC1 [ARS-1620],effectively inhibit tumor growth,nM-level,–,–,–,–,–,–
"COc1ncc(-c2ccc3ncnc(N4CCN(C(=O)/C=C/C(C)=O)CC4)c3c2)cc1NS(=O)(=O)c1ccc(Cl)s1 [Example 38, (E)-5-chloro-N-(2-methoxy-5-(4-(4-(4-oxopent-2-enoyl)piperazin-1-yl)quinazolin-6-yl)pyridin-3-yl)thiophene-2-sulfonamide]",–,–,0.0511,0.0598,0.807,0.215,0.0147,0.0015
